Reference: article PMC5859971 (Genes & Development, 2018)
pIC50: −log10 of the molar value.

Molecular target: T1, wild-type mini-SF3b complex (4-protein SF3b complex) (Homo sapiens, UniProt O75533+Q7RTV0)
T1 construct: SF3B1 was limited to the HEAT repeat domain from residues 454–1304 and cloned in-frame with an N-terminal Flag tag; Truncated SF3B1 and full-length SF3B3, PHF5A, and SF3B5 were synthesized; made in house; host or cells: SF21 insect cells (baculovirus, pFastBac1)
Assay: Scintillation proximity assay (SPA) competition with 3H-labeled pladienolide probe
Format: binding
Conditions: competition with 10 nM 3H-labeled pladienolide probe, 25 nM protein; read-out: SPA IC50
Method: To further validate the pose of the compound, we analyzed the activity of several related chemical probes using the SPA with the purified protein complex ([Teng et al. 2017]). The SPA is formatted as a competition assay in which the purified protein complex is captured on a bead containing scintillant, incubated with test compounds over a dose response, and then competed off with a fixed concentration of ^3H-Plad compound. IC50 curves are then measured from the resulting light emitted from the bead (Table 1; Supplemental Fig. S4). In addition, we tested the probes in viability assays in two engineered cell lines: HCT116-PHF5A^WT and the sensitization line HCT116-PHF5A^R38C (Table 1; Supplemental Fig. S5). This facilitates profiling of chemical probe activity in the PHF5A background (wild type and mutant). The relative expression levels were further confirmed by Western blot analysis (Supplemental Fig. S5).
Batch immobilization of the anti-Flag antibody (Sigma) to the anti-mouse PVT SPA scintillation beads (PerkinElmer) was prepared as follows. For every 1.5 mg of beads, 10 µg of antibody was prepared in 150 µL of PBS. The antibody–bead mixture was incubated for 30 min at room temperature and centrifuged at 18,000g for 5 min. One-hundred-fifty microliters of PBS was used to resuspend every 1.5 mg of antibody–bead mixture. The aforementioned mini-SF3b complex was tested for ^3H-labeled pladienolide probe binding ([Kotake et al. 2007]). One-hundred microliters of binding reactions was prepared with […] of bead slurry and 0 or 50 nM protein in buffer (20 mM HEPES at pH 8, 200 mM KCl, 5% glycerol). The mixture was incubated for 30 min, and varying concentrations of ^3H-labeled pladienolide probe were added. The mixture was incubated for 30 min, and luminescence signals were read using a MicroBeta2 plate counter (PerkinElmer). Compound competition studies were performed with the wild-type mini-SF3b complex. One-hundred microliters of binding reactions was prepared with 50 µL of bead slurry, 25 nM protein in buffer, and compounds at varying concentrations. After 30 min of preincubation, 10 nM ^3H-labeled pladienolide probe was added. The reactions were incubated for 30 min, and luminescence signals were read.
The Scintillation proximity assay (SPA) competition assay with 10 nM 3H tracer for different Pladienolide analogs binding to the 4-protein SF3b complex. Error bars represent STD for 2 or more measurements. Red = E7107, Orange = PladD, Purple = PladF, Green = compound 2, red = compound 3, gray = compound 4, black = compound 5, blue = compound 6. […]

T1 sequence (Q7RTV0 whole entry, the tested form may be a part): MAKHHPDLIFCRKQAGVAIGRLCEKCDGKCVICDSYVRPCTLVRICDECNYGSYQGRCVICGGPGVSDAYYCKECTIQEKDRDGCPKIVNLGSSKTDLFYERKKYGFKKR
T1 sequence (Q15393 whole entry, further chain, the tested form may be a part): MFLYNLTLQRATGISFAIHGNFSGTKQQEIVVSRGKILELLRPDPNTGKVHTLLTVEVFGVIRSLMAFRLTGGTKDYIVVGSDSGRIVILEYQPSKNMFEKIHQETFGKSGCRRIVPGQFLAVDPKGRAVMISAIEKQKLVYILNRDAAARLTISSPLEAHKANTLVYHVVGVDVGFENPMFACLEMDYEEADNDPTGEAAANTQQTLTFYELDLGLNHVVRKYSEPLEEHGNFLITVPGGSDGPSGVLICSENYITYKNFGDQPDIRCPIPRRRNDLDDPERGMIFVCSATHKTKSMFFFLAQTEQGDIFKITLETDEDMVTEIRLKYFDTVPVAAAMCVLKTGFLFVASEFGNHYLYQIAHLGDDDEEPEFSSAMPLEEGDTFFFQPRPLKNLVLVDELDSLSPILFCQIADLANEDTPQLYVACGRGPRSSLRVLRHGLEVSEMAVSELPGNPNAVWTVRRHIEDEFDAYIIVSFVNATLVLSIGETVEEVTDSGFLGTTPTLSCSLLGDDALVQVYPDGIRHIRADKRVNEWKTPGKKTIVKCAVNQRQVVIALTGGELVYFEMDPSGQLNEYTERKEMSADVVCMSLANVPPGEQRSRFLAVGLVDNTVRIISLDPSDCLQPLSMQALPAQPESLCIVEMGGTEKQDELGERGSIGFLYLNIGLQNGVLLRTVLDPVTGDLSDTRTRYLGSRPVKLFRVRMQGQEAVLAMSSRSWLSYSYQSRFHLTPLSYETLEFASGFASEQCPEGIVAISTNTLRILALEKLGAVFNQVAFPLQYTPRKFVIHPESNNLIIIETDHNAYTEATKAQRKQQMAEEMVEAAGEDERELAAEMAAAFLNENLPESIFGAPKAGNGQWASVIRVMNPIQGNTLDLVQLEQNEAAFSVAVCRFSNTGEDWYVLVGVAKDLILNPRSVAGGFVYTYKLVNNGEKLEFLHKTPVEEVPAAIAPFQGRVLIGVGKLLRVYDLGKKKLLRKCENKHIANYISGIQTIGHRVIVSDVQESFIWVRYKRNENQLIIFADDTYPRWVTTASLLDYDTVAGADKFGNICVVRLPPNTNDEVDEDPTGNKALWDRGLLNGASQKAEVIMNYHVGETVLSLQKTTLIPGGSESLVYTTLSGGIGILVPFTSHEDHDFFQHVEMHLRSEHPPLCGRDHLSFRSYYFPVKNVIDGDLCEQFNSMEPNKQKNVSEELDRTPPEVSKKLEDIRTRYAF
T1 sequence (O75533 454-1304): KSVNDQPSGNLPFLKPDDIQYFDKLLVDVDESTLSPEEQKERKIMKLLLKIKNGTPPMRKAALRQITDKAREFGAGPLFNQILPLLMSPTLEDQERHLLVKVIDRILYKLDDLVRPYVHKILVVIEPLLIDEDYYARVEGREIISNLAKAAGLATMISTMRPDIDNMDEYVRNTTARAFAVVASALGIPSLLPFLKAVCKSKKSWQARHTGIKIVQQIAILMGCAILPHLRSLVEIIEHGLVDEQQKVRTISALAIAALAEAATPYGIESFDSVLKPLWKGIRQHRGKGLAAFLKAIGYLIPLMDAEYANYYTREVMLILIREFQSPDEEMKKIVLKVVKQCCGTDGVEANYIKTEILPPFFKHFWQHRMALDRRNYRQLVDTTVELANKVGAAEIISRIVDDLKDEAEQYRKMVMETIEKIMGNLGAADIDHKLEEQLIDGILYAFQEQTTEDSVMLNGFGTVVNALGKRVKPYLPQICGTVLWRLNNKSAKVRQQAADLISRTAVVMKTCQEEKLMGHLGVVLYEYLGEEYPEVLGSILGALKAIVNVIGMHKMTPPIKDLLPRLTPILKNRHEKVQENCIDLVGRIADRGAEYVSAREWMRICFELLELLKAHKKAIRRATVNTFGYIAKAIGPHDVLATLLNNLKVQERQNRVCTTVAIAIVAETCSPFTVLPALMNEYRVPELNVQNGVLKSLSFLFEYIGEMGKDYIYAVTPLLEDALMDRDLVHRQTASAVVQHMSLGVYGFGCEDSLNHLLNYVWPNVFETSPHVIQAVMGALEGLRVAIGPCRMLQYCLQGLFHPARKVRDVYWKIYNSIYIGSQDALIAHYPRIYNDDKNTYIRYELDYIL
T1 sequence (Q9BWJ5 whole entry, further chain, the tested form may be a part): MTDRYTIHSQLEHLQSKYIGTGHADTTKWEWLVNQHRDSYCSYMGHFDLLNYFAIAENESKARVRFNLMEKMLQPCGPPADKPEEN

CCC(O)C(C)C1OC1CC(C)(O)C=CC=C(C)C1OC(=O)CC(O)CCC(C)(O)C(OC(=O)N2CCN(C3CCCCCC3)CC2)C=CC1C (stereo not shown) [Compound E7107]
pIC50: 7.17
